Test results as given in ChEMBL document CHEMBL5725686, “G protein-coupled receptor kinase 2 inhibitors and methods for use of the same” (2018).
pIC50: −log10 of the molar value.

Tests used:
[1] = molecular target: G protein-coupled receptor kinase 5 (Homo sapiens, UniProt P34947); assay: The low salt concentration and DDM were used to maximize GRK activity and disrupt small molecule aggregates from forming, respectively. […] Data was analyzed and inhibition curves were fit via GraphPad Prism.
[2] = molecular target: T1, Rhodopsin kinase GRK1 (Homo sapiens, UniProt Q15835); assay: The low salt concentration and DDM were used to maximize GRK activity and disrupt small molecule aggregates from forming, respectively. Reactions were quenched with SDS loading buffer, separated via SDS-PAGE, dried and exposed with a phosphorimaging screen prior to quantification via Typhoon imager, as previously reported (see Thal et al., ACS Chemical Biology 7(11):1830-1839 (2012)). Data was analyzed and inhibition curves were fit via GraphPad Prism.
T1 sequence (Q15835 whole entry): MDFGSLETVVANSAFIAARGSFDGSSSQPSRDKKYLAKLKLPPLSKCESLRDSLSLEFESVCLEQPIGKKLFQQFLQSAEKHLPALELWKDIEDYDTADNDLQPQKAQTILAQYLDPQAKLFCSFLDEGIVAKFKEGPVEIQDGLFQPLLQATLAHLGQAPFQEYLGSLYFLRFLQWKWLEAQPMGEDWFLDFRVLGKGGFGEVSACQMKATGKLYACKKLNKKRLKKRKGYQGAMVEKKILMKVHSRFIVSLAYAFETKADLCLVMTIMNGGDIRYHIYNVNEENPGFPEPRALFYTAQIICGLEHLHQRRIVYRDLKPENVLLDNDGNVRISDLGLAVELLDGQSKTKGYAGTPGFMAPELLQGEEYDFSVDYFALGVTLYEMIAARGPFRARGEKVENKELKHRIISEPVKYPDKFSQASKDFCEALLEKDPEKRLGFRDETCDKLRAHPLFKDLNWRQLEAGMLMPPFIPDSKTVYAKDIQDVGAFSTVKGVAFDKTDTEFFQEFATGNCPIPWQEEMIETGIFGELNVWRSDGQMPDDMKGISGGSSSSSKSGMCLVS

G protein-coupled receptor kinase 5, sequence (P34947 whole entry): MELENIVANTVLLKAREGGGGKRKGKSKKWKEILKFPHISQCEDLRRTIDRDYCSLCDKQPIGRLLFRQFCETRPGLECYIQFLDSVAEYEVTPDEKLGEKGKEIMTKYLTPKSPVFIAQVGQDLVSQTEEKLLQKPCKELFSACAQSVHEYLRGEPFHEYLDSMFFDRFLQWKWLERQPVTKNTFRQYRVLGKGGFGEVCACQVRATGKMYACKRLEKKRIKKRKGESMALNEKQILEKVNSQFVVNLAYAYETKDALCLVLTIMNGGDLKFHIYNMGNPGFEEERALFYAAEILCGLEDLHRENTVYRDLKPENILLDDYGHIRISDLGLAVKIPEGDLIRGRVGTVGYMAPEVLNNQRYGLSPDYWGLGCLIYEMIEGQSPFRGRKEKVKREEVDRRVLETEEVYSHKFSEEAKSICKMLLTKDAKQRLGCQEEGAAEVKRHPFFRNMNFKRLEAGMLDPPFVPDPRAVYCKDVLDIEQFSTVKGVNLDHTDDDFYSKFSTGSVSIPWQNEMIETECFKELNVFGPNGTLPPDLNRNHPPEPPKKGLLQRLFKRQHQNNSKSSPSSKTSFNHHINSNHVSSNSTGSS

SMILES | pIC50 [1] | pIC50 [2]
CC1=C(C(=O)Nc2ccc3[nH]ncc3c2)C(c2ccc(F)c(C(=O)NCc3nccc4ccccc34)c2)NC(=O)N1 (centres undefined) | 5.27 | –
C#CCN(CC(C)C)C(=O)Cc1cc(C2NC(=O)NC(C)=C2C(=O)Nc2ccc3[nH]ncc3c2)ccc1F (centres undefined) | 5.05 | –
C#CCN(Cc1ccco1)C(=O)Cc1cc(C2NC(=O)NC(C)=C2C(=O)Nc2ccc3[nH]ncc3c2)ccc1F (centres undefined) | 5.36 | –
CC1=C(C(=O)Nc2ccc3[nH]ncc3c2)C(c2ccc(F)c(CC(=O)N(CCO)Cc3ccco3)c2)NC(=O)N1 (centres undefined) | – | 4.68
